Data: patent US20260206761A1, “HETEROARYL-TRIAZOLE COMPOUNDS AS PESTICIDES” (Bayer Aktiengesellschaft, priority 2019, published 2026)

Key:
Assay type in all cases: in vivo
[1] = tested on: adult engorged female ticks (Rhipicephalus microplus); test: Rhipicephalus (Boophilus) microplus injection test; conditions: 168 h, egg deposition after 7 days, read-out: activity (efficacy: infertile eggs); for pest or weed control at 4 pg: application rate 4 pg/animal; for pest or weed control at 0.02 mg: application rate 20 μg/animal
In short: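 Abdominal injection, 1 μL compound/DMSO, n=5 engorged adult females; climate-chamber incubation. Readout d7: fertile egg laying; doubtful eggs held to hatch (~42 d). % efficacy = infertile eggs (100% all infertile).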

[2] = tested on: adult unfed cat fleas (Ctenocephalides felis); test: Ctenocephalides felis oral test; conditions: 48 h, read-out: activity (mortality)
In short: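 About 20 adult unfed fleas fed through parafilm on cattle blood containing compound (DMSO stock diluted in blood), blood held at 37 °C and fleas at room temperature. Mortality (%) scored after 2 days.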

[3] = tested on: green peach aphid (Myzus persicae); test: Myzus persicae oral test; conditions: 120 h, application rate 4 ppm, after 5 days
In short: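 Five-day oral feeding assay measuring percent mortality of a mixed aphid population that draws compound-containing sugared IPL41 medium through sealing parafilm; the test preparation derives from 1 part compound per 100 parts acetone, diluted with water.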

[4] = tested on: Musca domestica strain WHO-N; test: Musca domestica test (MUSCDO surface treatment & contact assay); conditions: 24 hours after contact, read-out: efficacy (mortality); for mortality at 20 mg/m2: surface concentration 20 mg/m^2, exposure 30 minutes; for mortality at 4 mg/m2: surface concentration 4 mg/m^2, exposure 30 minutes
Experimental: Musca domestica Test (MUSCDO Surface Treatment & Contact Assay)
Solvent: Aceton+2000 ppm rapeseed oil methyl ester (RME)
In order to produce a sufficient, active ingredient containing solution it is necessary to solve the test compound in the solvent-mix (acetone at 2 mg/ml/RME 2000 ppm). This solution is pipetted onto a glazed tile and after evaporation of the acetone, adult flies of the species Musca domestica strain WHO—N are placed onto the dried surface. The exposure time is 30 minutes. Mortality in percent (%) is determined 24 hours after contact of the insects to the treated surface. 100% mortality means that all tested insects are dead, whereas 0% means that no insect died.

[5] = tested on: Rhipicephalus microplus larvae (strain Parkhurst, resistant against synthetic pyrethroids); test: Rhipicephalus (Boophilus) microplus in-vitro contact test, larval cattle tick; conditions: after 48 hours, read-out: activity (efficacy: larvae dead or moribund); for pest or weed control at 100 g/ha: application rate 1 pg/cm^2 (=100 g/ha); for pest or weed control at 500 g/ha: application rate 5 pg/cm^2 (=500 g/ha)
In short: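 Larvae (20-50 per tube) exposed to dry compound film on glass tube walls, 5 μg/cm^2 at 900 ppm, applied from acetone. After 48 h at 27° C./85% RH, tubes tapped and negative geotaxis scored; efficacy as percent dead or moribund larvae.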

[6] = tested on: adult brown dog ticks (Rhipicephalus sanguineus); test: Rhipicephalus sanguineus in-vitro contact test, adult brown dog ticks; conditions: after 48 hours, read-out: activity (efficacy: ticks dead or moribund); for pest or weed control at 5 µg/cm2, 500 g/ha: application rate 5 μg/cm^2 (=500 g/ha); for pest or weed control at 100 g/ha: application rate 1 pg/cm^2 (=100 g/ha)
In short: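 Read-out: % efficacy as dead or moribund ticks, judged 48 h after exposure by failure to climb away from a 45-50° C heating plate within 5 min. Tubes were coated with acetone solution (900 ppm = 5 μg/cm^2 surface dose) and held 5-10 adults each at room temperature.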

[7] = tested on: larvae of the banded cucumber beetle (Diabrotica balteata); test: Diabrotica balteata spray test; conditions: 168 h, after 7 days, read-out: activity (efficacy: seedlings grown); for pest or weed control at 100 g/ha: application rate 100 g/ha (=32 pg/well); for pest or weed control at 500 g/ha: application rate 500 g/ha (=160 pg/well)
In short: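 Read-out is % efficacy at day 7, 0% meaning no seedling growth and 100% growth equal to uninfested untreated controls. Test solutions (acetone/DMF concentrate diluted with water carrying 1000 ppm emulsifier) were sprayed onto 1-day-germinated wheat seeds, 5 per well, before infestation with 10-20 larvae.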

[8] = tested on: fall armyworm larvae (Spodoptera frugiperda); test: Spodoptera frugiperda spray test; conditions: 168 h, read-out: activity (mortality)
In short: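 Larvae of fall armyworm placed on dried maize leaf sections previously sprayed with emulsified compound (acetone/DMF solvent, water with 1000 ppm emulsifier). Percent of caterpillars killed recorded on day 7, 0–100% scale.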

[9] = tested on: Aedes aegypti strain MONHEIM; test: Aedes aegypti test (AEDSAE surface treatment & contact assay); conditions: 24 hours after contact, read-out: efficacy (mortality); for mortality at 4 mg/m2: surface concentration 4 mg/m^2, exposure 30 minutes; for mortality at 20 mg/m2: surface concentration 20 mg/m^2, exposure 30 minutes
In short: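 Percent mortality was read 24 h after adult MONHEIM mosquitoes were held for 30 min on a tile treated with compound. Compound applied from acetone solution (2 mg/ml) containing 2000 ppm rapeseed oil methyl ester, after evaporation.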

[10] = tested on: green peach aphid (Myzus persicae); test: Myzus persicae spray test; conditions: 120 h, after 5 days; for mortality at 100 g/ha: application rate 100 g/ha
In short: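 Chinese cabbage leaf disks carrying all instars of M. persicae sprayed with compound in acetone/DMF, diluted in water with 1000 ppm alkylarylpolyglycol ether emulsifier. Percent mortality scored after 5 days (100% = all aphids killed).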

[11] = tested on: larvae of the southern green stink bug (Nezara viridula); test: Nezara viridula spray test; conditions: 96 h, after 4 days; for mortality at 100 g/ha: application rate 100 g/ha; for mortality at 500 g/ha: application rate 500 g/ha
In short: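 Larva-infested barley (Hordeum vulgare) plants received a spray of test solution prepared from an acetone/DMF concentrate diluted in emulsifier-containing water (1000 ppm). Percent kill read 4 days later; 0% means no stink bugs dead.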

[12] = tested on: adult cat fleas (Ctenocephalides felis); test: Ctenocephalides felis in-vitro contact test, adult cat flea; conditions: application rate 5 μg/cm^2 (=500 g/ha), after 48 hours, read-out: activity (efficacy: fleas dead or moribund)
Experimental: Ctenocephalides felis—In-Vitro Contact Tests Adult Cat Flea
9 mg compound is solved in 1 mL acetone and diluted with acetone to the desired concentration. 250 μL of the test solution is filled in 25 mL glass test tubes and homogeneously distributed on the inner walls by rotation and tilting on a shaking device (2 h at 30 rpm). With a compound concentration of 900 ppm, an inner surface of 44.7 cm^2 and a homogeneous distribution, a dose of […] is achieved.
After the solvent has evaporated, each test tube is filled with 5-10 adult cat fleas (Ctenocephalides felis), closed with a perforated lid and incubated in a lying position at room temperature and relative humidity. After 48 hours efficacy is determined. The fleas are patted on the ground of the tubes and are incubated on a heating plate at 45-50° C. for at most 5 minutes. Immotile or uncoordinated moving fleas, which are not able to escape the heat by climbing upwards, are marked as dead or moribund.
An efficacy of 100% means all fleas are dead or moribund; 0% means no fleas are dead or moribund.

Row | Compound | pest or weed control at 4 pg [1] [%] | pest or weed control at 0.02 mg [1] [%] | mortality at 100 ppm [2] [%] | mortality at 4 ppm [3] [%] | mortality at 20 mg/m2 [4] [%] | pest or weed control at 100 g/ha [5] [%] | pest or weed control at 500 g/ha [5] [%] | pest or weed control at 5 µg/cm2, 500 g/ha [6] [%] | pest or weed control at 100 g/ha [7] [%] | mortality at 100 g/ha [8] [%] | mortality at 4 mg/m2 [4] [%] | pest or weed control at 100 g/ha [6] [%] | mortality at 4 mg/m2 [9] [%] | mortality at 100 g/ha [10] [%] | mortality at 100 g/ha [11] [%] | mortality at 500 g/ha [11] [%] | pest or weed control at 5 µg/cm2 [12] [%] | other results
1 | C[C@H](NC(=O)c1cc(Cl)cc(S(=O)(=O)CC(F)(F)F)c1)c1nc(C2CC2)nn1-c1ccc(C#N)cn1 [I-13] | 100 | 100 | 90 | 90 | 80 to 100 |  |  |  |  |  |  |  |  |  |  |  |  | 
2 | CCS(=O)(=O)c1cc(C(=O)N[C@@H](C)c2nc(C3CC3)nn2-c2ccc(C#N)cn2)cc(C(F)(F)F)c1 [I-19] | 100 | 100 | 90 | 100 | 80 to 100 | 100 | 100 | 80 | 80 | 100 | 80 to 100 |  |  |  |  |  |  | 
3 | C[C@H](NC(=O)c1cc(Cl)cc(C2(C#N)CC2)c1)c1nc(C2CC2)nn1-c1ccc(C#N)cn1 [I-36] | 100 |  | 100 |  | 80 to 100 | 100 | 100 | 80 | 100 | 100 | 80 to 100 | 100 | 80 to 100 |  |  |  |  | mortality at 20 mg/m2 [9]: 80 to 100%
4 | COc1nc([C@H](C)NC(=O)c2cc(OC(F)(F)F)cc(S(C)(=O)=O)c2)n(-c2ccc(Cl)cn2)n1 [I-80] |  |  |  | 100 | 80 to 100 |  |  |  | 100 | 100 | 80 to 100 |  |  | 90 | 100 | 100 |  | 
5 | C[C@H](NC(=O)c1cc(C#N)cc(S(C)(=O)=O)c1)c1ncnn1-c1ccc(C#N)cn1 [II-9] | 100 | 100 | 100 | 100 |  | 80 | 80 |  | 100 |  |  |  | 80 to 100 | 90 | 100 | 100 | 90 | pest or weed control at 500 g/ha [7]: 100%; mortality at 500 g/ha ([10]; application rate 500 g/ha): 90%; mortality at 500 g/ha [8]: 100%
6 | Cc1nc([C@H](C)NC(=O)c2cc(Cl)cc(S(=O)(=O)C(F)(F)F)c2)n(-c2ccc(Cl)cn2)n1 [II-14] | 80 | 100 |  |  | 80 to 100 |  | 80 |  | 100 | 100 |  |  |  |  |  | 100 | 90 | pest or weed control at 500 g/ha [7]: 100%; mortality at 500 g/ha [8]: 100%
7 | C[C@H](NC(=O)c1cc(Br)cc(S(C)(=O)=O)c1)c1ncnn1-c1ccc(C#N)cn1 [II-41] | 100 | 100 | 100 | 100 |  | 100 | 100 | 100 | 100 | 100 |  | 100 |  | 100 | 100 |  | 100 | 
8 | C[C@H](NC(=O)c1cc(Cl)cc(C2(C#N)CC2)c1)c1ncnn1-c1ncc(Cl)cn1 [II-55] | 100 |  | 100 | 100 |  | 100 | 100 | 100 | 100 | 100 |  | 100 |  | 100 | 100 |  | 100 | 
9 | C[C@H](NC(=O)c1cc(C2CC2)cc(C2CC2)c1)c1ncnn1-c1ccc(C#N)cn1 [II-57] | 100 |  | 100 | 100 |  | 100 | 100 | 100 | 100 | 100 | 80 to 100 | 80 | 80 to 100 |  |  |  |  | mortality at 20 mg/m2 [9]: 80 to 100%
